Results on 21 compounds are retold here after paper PMC2120548 (The Journal of Cell Biology, 1995).

Test [1] has as its system fibronectin type III10 (RGD-containing) fragments. In words: Panning of phage display peptide libraries on fibronectin fragments. In kind it is binding. The following applies: Table I.
The test system of test [2] is beta 3 subunit of purified alpha IIb beta 3. Nature of the test: Immunoblot of purified alpha IIb beta 3. In kind it is binding.
A short description of a further test: RGD-phage. The following applies: peptide coated at 20 μg/ml; mean of triplicate wells. In kind it is binding.
Test [3] has as its system MG-63 osteosarcoma cells, vitronectin. In words: Cell attachment assay on vitronectin. In kind it is cell-based. Particulars: MG-63 cells, 30 min, crystal violet OD600, mean of triplicate wells.
Test [4] is described as follows: Inhibition of RGD-phage binding to immobilized beta 3.
Test [5] can be described thus: Inhibition of WDDGWL-phage attachment to immobilized peptides. Particulars: soluble peptide 1 mM; mean of triplicate wells, Fig. 3 b. In kind it is binding.
Test [6] concerns III8-11 fibronectin fragment / WDDGWL-phage. Nature of the test: Inhibition of WDDGWL-phage binding to fibronectin fragment by peptides. Particulars: soluble competitor, microtiter assay, Fig. 2 b.
A short description of test [7]: Inhibition of RGD-phage attachment to immobilized peptides. In kind it is binding. Particulars: soluble peptide 1 mM; mean of triplicate wells, Fig. 3 c.
Test [8] deals with beta 1 and beta 3 integrin subunits in MG-63 total cell extracts. Nature of the test: Immunoblot of MG-63 cell extracts. In kind it is binding. Particulars: peptide 100 μM, Fig. 7 b lanes C and D. Background: In western blotting, separated proteins are transferred to a membrane and probed.
Test [9] relates to MG-63 osteosarcoma cells, fibronectin. In words: Cell attachment assay on fibronectin. In kind it is cell-based. The following applies: MG-63 cells, 30 min, crystal violet OD600, mean of triplicate wells.
The subject of another test is fibronectin. In words: Affinity chromatography on *[…]*-Sepharose. In kind it is binding, Human.
The test system of test [10] is MG-63 osteosarcoma cells, type IV collagen. In words: Cell attachment assay on type IV collagen. In kind it is cell-based. Particulars: MG-63 cells, 30 min, crystal violet OD600, mean of triplicate wells.
A short description of test [11]: WDDGWL-phage attachment to immobilized peptide. In kind it is binding. The following applies: peptide coated at 20 μg/ml; mean of triplicate wells.
For a further test, the system named is fibrinogen. The following applies: aspartic acid residues of DDLW mutated to alanines; cited from earlier work.
For a further test, the system named is RGD-mimic OPG2 antibody. Particulars: aspartic acid residues of DDLW mutated to alanines; ref Bajt et al. (3); cited from earlier work.
Test [12] deals with fragment encompassing the alternatively spliced cell attachment domain of fibronectin. Nature of the test: Phage attachment assay on alternatively spliced fibronectin fragment. In kind it is binding. Particulars: not shown.
For test [13], the system named is control proteins (BSA and GST). Nature of the test: Phage attachment assay on control proteins. In kind it is binding. The following applies: microtiter wells, OD600, mean of triplicates.
The test system of test [14] is fibronectin and fibronectin fragments containing the RGD sequence (III10). Nature of the test: Phage attachment assay on fibronectin and RGD-containing fibronectin fragments. In kind it is binding, Human.
Test [15] deals with fibronectin fragment III8,9 (RGD-). Nature of the test: Phage attachment assay on fibronectin fragment III8,9. In kind it is binding. The following applies: microtiter wells, OD600, mean of triplicates.
The nature of test [16]: Fibronectin on control peptide column. In kind it is binding. Particulars: not shown.

Ends that are not written are not given here.

As to WDDGWM, in test [1] (RGD elution), the “number of phage displaying the same amino acid motif” value (“number” below) turned out to be 4.

As to *CWDDGWLC* (disulfide), the “effect of peptide on reactivity of positive control antibodies” value in [2] (Fig. 7 a or b, also MG-63 extracts) is “no ef- fect on the reactivity of the positive control antibodies”. The “reactivity of the anti-*CWDDGWLC* serum after preincubation with peptide” value in test [2] (peptide 100 μM, Fig. 7 a lanes C and D) is listed as “abrogated”. In “RGD-phage”, the “binding of RGD-phage to immobilized peptide” value was “can bind to the *CWDDGWLC*-containing”. Besides, the results for the “inhibition of cell attachment” value in test [3], in test [9] and in test [10] were “inhibited cell adhesion”, “inhibited cell adhesion” and “not on collagen”, respectively. Further, the “inhibition of RGD-phage binding” value in test [4] (soluble peptide, Fig. 6 b) is listed as “blocked”. Further, the “inhibition of WDDGWL-phage binding to immobilized peptide” value in test [5] is given as “blocked the WDDGWL-phage binding”. The “inhibition of WDDGWL-phage binding” value in test [6] is reported as “in a dose-dependent manner”. Also, the “inhibition of RGD-phage binding to immobilized peptide” value in test [7] is “inhibited by both peptides”. The “reactivity of the anti-WDDGWL serum after preincubation with peptide” value in [8] is listed as “abrogated”. Also, the “binding of fibronectin to peptide-Sepharose” value in the test with fibronectin (fibronectin 2 mg, TBS, SDS-PAGE) is on record as “fibronectin bound to *CWDDGWLC*-Sepharose”.

With TLRFQRS, the “number” value in test [1] (EDTA elution) was determined as 1.

As for “*CVRLNSLAC* (disulfide) [reference compound]”, the “inhibition of cell attachment” value in test [3], in [9] and in test [10] was “no effect on any of the substrates” throughout.

Take GNRLR: the “number” value in test [1] (direct infection of wells) came to 1.

Regarding QRIVLGFT, in test [1] (direct infection of wells), the “number” value was 1.

“A*CRGDGWMC*G (disulfide) [reference compound]”: the “binding of RGD-phage to immobilized peptide” value in “RGD-phage” is on record as “slight, but consistent, binding”. For the same compound, in test [5], the “inhibition of WDDGWL-phage binding to immobilized peptide” value is “blocked the WDDGWL-phage binding”. Also, the “inhibition of WDDGWL-phage binding” value in [6] is reported as “in a dose-dependent manner”. Besides, in test [7], the “inhibition of RGD-phage binding to immobilized peptide” value is reported as “inhibited by both peptides”. Besides, the “binding of WDDGWL-phage to immobilized peptide” value in [11] is given as “WDDGWL-phage can bind to the RGD-containing peptide”.

As for WDDGLM, the “number” value in test [1] (RGD elution) turned out to be 7.

Regarding DYWLGF, the “number” value in test [1] (direct infection of wells) is on record as 1.

On to FVLWLV, for which the “number” value in [1] (direct infection of wells) worked out at 1.

With `O=C(O)CN(CCN(CC(=O)O)CC(=O)O)CC(=O)O` [EDTA, reference compound], the “effect of EDTA on RGD-phage binding” value in [4] (peptides coated in the presence of cations, EDTA 10 mM) is “did not block phage binding”.

With SWDDGWL, in test [1] (direct infection of wells), the “number” value is 6.

On to “mutant alIb[33 integrin: integrin with aspartic acid residues of DDLW mutated to alanines (ref 3)”, for which the binding to fibrinogen entry with fibrinogen was “did not appreciably affect the binding”. In addition, the “binding to OPG2 antibody” value in the test on RGD-mimic OPG2 antibody is listed as “lost”.

With DGWLGF, in [1] (direct infection of wells), the “number” value came out at 2.

As to WDDLWWL, in test [1] (RGD elution), the “number” value is listed as 10.

With LVWLLVQFY, the “number” value in test [1] (EDTA elution) is on record as 2.

On to “WDDGWL (disulfide (positions not given here))”, for which the figures for the “number” value in test [1] (EDTA elution), in test [1] (RGD elution) and in test [1] (direct infection of wells) were 21, 131 and 45, respectively. The phage binding result in test [12], in test [13] and in test [15] was “minimal” each time. The “divalent cation requirement of phage binding” value in [14] is recorded as “did not require divalent cations”.

As for GRGESP, the “elution of fibronectin from *CWDDGWLC*-Sepharose” value in the test with fibronectin (eluting peptide 1 mM, SDS-PAGE) was “not with the GRGESP peptide”.

As for Fibronectin, in test [16], the “retention on control unrelated peptide column” value is “not retained”.

In the case of PDDLWWL, the “number” value in test [1] (direct infection of wells) is reported as 3.

For BSA: control protein, the “retention on *CWDDGWLC*-Sepharose column” value with fibronectin (proteins other than fibronectin) is given as “not retained”.
